The values below come from patent US8933075B2, “Compounds useful as antiviral agents, compositions, and methods of use” (priority 2010, dated 2015).

Usually EC50 stands for the concentration needed to bring the measured effect to its halfway point.

Each structure is given as a SMILES string. Where two headings read alike, the source gives them in different places.

In the assay the test system is A/Udorn/72 (H3N2) virus. In words: Plaque assay in MDCK cells: EC50 by reduction of plaque number. Format: cell-based, influenza virus.

For the setting “MDCK”, `O=C1/C(=C/c2oc(-c3ccc(F)cc3)cc2CCCOC[C@@H](O)CO)SC(=S)N1C1CC2CCC1C2` (stereo partly drawn) [Compound 204, (Z)-3-(bicyclo[2.2.1]heptan-2-yl)-5-((3-(3-((S)-2,3-dihydroxypropoxy)propyl)-5-(4′-fluorophenyl)-furan-2-yl)methylene)-2-thioxothiazolidin-4-one] came in with an EC50 of less than 0.1 µM. Still for that read-out and setting: the result for `O=C1/C(=C/c2coc3ccc(Br)cc3c2=O)SC(=S)N1C1CCC2CCCCC2C1` (stereo not drawn) [Compound 206] reads less than 0.1 µM. `O=C1/C(=C/c2ccccc2)SC(=S)N1C1CC2CCC1C2` (stereo not drawn) [Compound 207] came in with an EC50 (MDCK) of 0.25 to 1 µM.

On to `O=C1/C(=C/c2ccco2)SC(=S)N1C1C2CC3CC(C2)CC1C3` (stereo not drawn) [Compound 209, (Z)-3-(adamantan-2-yl)-5-(furan-2-ylmethylene)-2-thioxothiazolidin-4-one], for which, for the setting “MDCK”, the EC50 lay in the range of 0.25 to 1 µM. With `O=C1/C(=C/c2coc3ccc(Br)cc3c2=O)SC(=S)N1C1C2CC3CC(C2)CC1C3` (stereo not drawn) [Compound 210, 3-adamantan-2-yl-5-(6-bromo-4-oxo-4H-chromen-3-ylmethylene)-2-thioxo-thiazolidin-4-one], the half-maximal effective concentration (EC50) (MDCK) was less than 0.1 µM. In turn, `O=C1/C(=C/c2csc3ccccc23)SC(=S)N1C1C2CC3CC(C2)CC1C3` (stereo not drawn) [Compound 211, 3-adamantan-2-yl-5-benzo[b]thiophen-3-ylmethylene-2-thioxo-thiazolidin-4-one] displayed a concentration giving a half-maximal response (EC50) (MDCK) of less than 0.1 µM. On the same count and under the same terms, the result for `O=C1/C(=C/c2ccc(Br)s2)SC(=S)N1C1C2CC3CC(C2)CC1C3` (stereo not drawn) [Compound 212] reads less than 0.1 µM.

In turn, `O=C1/C(=C/c2cc3cc(Br)ccc3[nH]2)SC(=S)N1C1C2CC3CC(C2)CC1C3` (stereo not drawn) [Compound 213, 3-adamantan-2-yl-5-(5-bromo-1H-indol-2-ylmethylene)-2-thioxo-thiazolidin-4-one] had an EC50 (MDCK) of less than 0.1 µM. Still for that read-out and setting: to `O=C1/C(=C/c2cc3ccccc3s2)SC(=S)N1C1CC2CCC1C2` (stereo not drawn) [Compound 214, (Z)-5-(benzo[b]thiophen-2-ylmethylene)-3-(bicyclo[2.2.1]heptan-2-yl)-2-thioxothiazolidin-4-one] belongs less than 0.1 µM; to `O=C1/C(=C/c2c[nH]c3ccccc23)SC(=S)N1C1C2CC3CC(C2)CC1C3` (stereo not drawn) [Compound 215, 3-adamantan-2-yl-5-(1H-indol-3-ylmethylene)-2-thioxo-thiazolidin-4-one], less than 0.1 µM; to `O=C1/C(=C/c2c[nH]c3ccccc23)SC(=S)N1C1CC2CCC1C2` (stereo not drawn) [Compound 216, (Z)-5-((1H-indol-3-yl)methylene)-3-(bicyclo[2.2.1]heptan-2-yl)-2-thioxothiazolidin-4-one], less than 0.1 µM. Compound `O=C1/C(=C/c2cc3ccccc3o2)SC(=S)N1C1CC2CCC1C2` (stereo not drawn) [Compound 217] registered an EC50 (MDCK) of less than 0.1 µM.

As for `O=C1/C(=C/c2cc3ccccc3o2)SC(=S)N1C1C2CC3CC(C2)CC1C3` (stereo not drawn) [Compound 218, 3-adamantan-2-yl-5-benzofuran-2-ylmethylene-2-thioxo-thiazolidin-4-one], the EC50 (MDCK) was less than 0.1 µM. Compound `O=C1/C(=C/c2ccco2)SC(=S)N1C1CCCCCC1` [Compound 219, (Z)-3-cycloheptyl-5-(furan-2-ylmethylene)-2-thioxothiazolidin-4-one] registered an EC50 (MDCK) of 0.25 to 1 µM.

Under “MDCK”, `O=C1/C(=C/c2ccco2)SC(=S)N1C1CCCCC1` [Compound 220] had an EC50 of 0.25 to 1 µM. Compound `COC(=O)/C=C/c1ccc(/C=C2\SC(=S)N(C3CC4CCC3C4)C2=O)o1` (stereo not drawn) [Compound 221, (E)-Methyl 3-(5-((Z)-(3-(bicyclo[2.2.1]heptan-2-yl)-4-oxo-2-thioxothiazolidin-5-ylidene)methyl)-furan-2-yl)acrylate] yielded a concentration giving a half-maximal response (EC50) (MDCK) of less than 0.1 µM. For the setting “MDCK”, `CCOC(=O)/C=C/c1ccc(/C=C2\SC(=S)N(C3C4CC5CC(C4)CC3C5)C2=O)o1` (stereo not drawn) [Compound 223, (E)-Ethyl 3-(5-((Z)-(3-(adamantan-2-yl)-4-oxo-2-thioxothiazolidin-5-ylidene)methyl)furan-2-yl)acrylate] came in with an EC50 of less than 0.1 µM.

Take `COC(=O)/C=C/c1ccc(/C=C2\SC(=S)N(C3C4CC5CC(C4)CC3C5)C2=O)o1` (stereo not drawn) [Compound 224]: the concentration for a half-maximal effect (EC50) (MDCK) was less than 0.1 µM. Turning to `O=C1/C(=C/c2ccc(-c3ccc(-c4ccccc4)cc3)o2)SC(=S)N1C1CC2CCC1C2` (stereo not drawn) [Compound 226], the EC50 (MDCK) is less than 0.1 µM. In the case of `COc1ccc2c(O)c(-c3ccc(-c4ccc(/C=C5\SC(=S)N(C6CC7CCC6C7)C5=O)o4)cc3)c(=O)oc2c1` (stereo not drawn) [Compound 227], where the note is “MDCK”, the half-maximal effective concentration (EC50) is less than 0.1 µM.

For the setting “MDCK”, `O=C1/C(=C/c2[nH]c(-c3ccc(Cl)cc3)cc2CCCO)SC(=S)N1C1CC2CCC1C2` (stereo not drawn) [Compound 229] gave a concentration giving a half-maximal response (EC50) of less than 0.1 µM. In turn, `O=C1/C(=C/c2[nH]c(-c3ccc(Cl)cc3)cc2CCCCCO)SC(=S)N1C1CC2CCC1C2` (stereo not drawn) [Compound 230] yielded a concentration for a half-maximal effect (EC50) (MDCK) of less than 0.1 µM.

Turning to `CC(=O)OCCCc1cc(-c2ccc(Cl)cc2)[nH]c1/C=C1\SC(=S)N(C2CC3CCC2C3)C1=O` (stereo not drawn) [Compound 231], under “MDCK”, the half-maximal effective concentration (EC50) is less than 0.1 µM.

Under “MDCK”, `COc1cccc(-c2cc(CCCO)c(/C=C3\SC(=S)N(C4CC5CCC4C5)C3=O)[nH]2)c1` (stereo not drawn) [Compound 232] came in with a concentration for a half-maximal effect (EC50) of less than 0.1 µM. Turning to `COc1cccc(-c2cc(CCCO)c(/C=C3\SC(=S)N(C4C5CC6CC(C5)CC4C6)C3=O)[nH]2)c1` (stereo not drawn) [Compound 233], the EC50 is less than 0.1 µM.

Consider `O=C1/C(=C/c2[nH]c(-c3ccc(Cl)cc3)cc2CCCO)SC(=S)N1C1C2CC3CC(C2)CC1C3` (stereo not drawn) [Compound 234], for which the EC50 (MDCK) was less than 0.1 µM.

On to `COc1cccc(-c2cc(CCCCCO)c(/C=C3\SC(=S)N(C4CC5CCC4C5)C3=O)[nH]2)c1` (stereo not drawn) [Compound 235], for which, under “MDCK”, the concentration giving a half-maximal response (EC50) was less than 0.1 µM. Still for that read-out and setting: the result for `O=C1/C(=C/c2[nH]c(-c3ccc(Cl)cc3)cc2CCCCCO)SC(=S)N1C1C2CC3CC(C2)CC1C3` (stereo not drawn) [Compound 236] reads less than 0.1 µM; that for `COc1cccc(-c2cc(CCCCCO)c(/C=C3\SC(=S)N(C4C5CC6CC(C5)CC4C6)C3=O)[nH]2)c1` (stereo not drawn) [Compound 237], less than 0.1 µM.

As to `COc1cccc(-c2cc(CCCO)c(/C=C3\SC(=S)N(C4C5CC6CC(C5)CC4C6)C3=O)[nH]2)c1` (stereo not drawn) [Compound 238], the EC50 is 0.25 to 1 µM. The compound `CC(C)(C)N1C(=O)C[C@@H](C(=O)OCCCCCc2cc(-c3ccc(Cl)cc3)[nH]c2/C=C2\SC(=S)N(C3C4CC5CC(C4)CC3C5)C2=O)NC1=O` (stereo partly drawn) [Compound 251] displayed an EC50 (MDCK) of less than 0.1 µM. Turning to `CC(C)(C)N1C(=O)C[C@@H](C(=O)OCCCc2cc(-c3ccc(Cl)cc3)[nH]c2/C=C2\SC(=S)N(C3C4CC5CC(C4)CC3C5)C2=O)NC1=O` (stereo partly drawn) [Compound 252], for the setting “MDCK”, the EC50 is less than 0.1 µM.

`CC(C)(C)OC(=O)N[C@@H](CC(N)=O)C(=O)OCCCc1cc(-c2ccc(Cl)cc2)[nH]c1/C=C1\SC(=S)N(C2C3CC4CC(C3)CC2C4)C1=O` (stereo partly drawn) [Compound 253]: the half-maximal effective concentration (EC50) (MDCK) is less than 0.1 µM. For the setting “MDCK”, `CC(C)(C)OC(=O)N[C@@H](CC(N)=O)C(=O)OCCCCCc1cc(-c2ccc(Cl)cc2)[nH]c1/C=C1\SC(=S)N(C2C3CC4CC(C3)CC2C4)C1=O` (stereo partly drawn) [Compound 254] showed an EC50 of less than 0.1 µM. The same measure, in the same setting: to `CC(C)(C)OC(=O)N[C@@H](CC(N)=O)C(=O)N1CCN(CCCCCc2cc(-c3ccc(Cl)cc3)[nH]c2/C=C2\SC(=S)N(C3CC4CCC3C4)C2=O)CC1` (stereo partly drawn) [Compound 255] belongs less than 0.1 µM. The same measure, in the same setting: to `O=C1/C(=C/c2cc(CCCO)c(-c3ccc(Cl)cc3)n2Cc2ccccc2)SC(=S)N1C1CC2CCC1C2` (stereo not drawn) [Compound 256] belongs less than 0.1 µM; to `O=C1/C(=C/c2cc(CCCO)c(-c3ccc(Cl)cc3)n2Cc2ccccc2)SC(=S)N1C1C2CC3CC(C2)CC1C3` (stereo not drawn) [Compound 257], less than 0.1 µM; to `Cn1c(-c2ccc(Cl)cc2)cc(CCCO)c1/C=C1\SC(=S)N(C2CC3CCC2C3)C1=O` (stereo not drawn) [Compound 258], greater than 1 µM.

For `Cn1c(-c2ccc(Cl)cc2)cc(CCCO)c1/C=C1\SC(=S)N(C2C3CC4CC(C3)CC2C4)C1=O` (stereo not drawn) [Compound 259], the half-maximal effective concentration (EC50) (MDCK) is greater than 1 µM.

In turn, `Cn1c(-c2ccc(Cl)cc2)cc(CCCCCO)c1/C=C1\SC(=S)N(C2CC3CCC2C3)C1=O` (stereo not drawn) [Compound 260] came in with an EC50 (MDCK) of less than 0.1 µM. Still for that read-out and setting: to `Cn1c(-c2ccc(Cl)cc2)cc(CCCCCO)c1/C=C1\SC(=S)N(C2C3CC4CC(C3)CC2C4)C1=O` (stereo not drawn) [Compound 261] belongs less than 0.1 µM; to `COc1cccc(-c2cc(CCCCCO)c(/C=C3\SC(=S)N(C4CC5CCC4C5)C3=O)n2C)c1` (stereo not drawn) [Compound 262], greater than 1 µM; to `COc1cccc(-c2cc(CCCCCO)c(/C=C3\SC(=S)N(C4C5CC6CC(C5)CC4C6)C3=O)n2C)c1` (stereo not drawn) [Compound 263], 0.25 to 1 µM. Turning to `COc1cccc(-c2cc(CCCO)c(/C=C3\SC(=S)N(C4CC5CCC4C5)C3=O)n2C)c1` (stereo not drawn) [Compound 264], the half-maximal effective concentration (EC50) (MDCK) is 0.25 to 1 µM.

Regarding `Cn1c(/C=C2\SC(=S)N(C3CC4CCC3C4)C2=O)cc(C#CCCCO)c1-c1ccc(Cl)cc1` (stereo not drawn) [Compound 265], the EC50 (MDCK) is less than 0.1 µM. In turn, `COc1cccc(-c2c(C#CCCCO)cc(/C=C3\SC(=S)N(C4CC5CCC4C5)C3=O)n2C)c1` (stereo not drawn) [Compound 266] returned an EC50 (MDCK) of less than 0.1 µM. In the case of `COc1cccc(-c2c(C#CCCCOC(=O)[C@H](CC(N)=O)NC(=O)OC(C)(C)C)cc(/C=C3\SC(=S)N(C4C5CC6CC(C5)CC4C6)C3=O)n2C)c1` (stereo partly drawn) [Compound 270], the EC50 (MDCK) was less than 0.1 µM.

As to `COc1cccc(-c2c(C#CCCCOC(=O)[C@H](CC(N)=O)NC(=O)OC(C)(C)C)cc(/C=C3\SC(=S)N(C4CC5CCC4C5)C3=O)n2C)c1` (stereo partly drawn) [Compound 271], the EC50 (MDCK) is less than 0.1 µM.

For the compound `Cn1c(/C=C2\SC(=S)N(C3CC4CCC3C4)C2=O)cc(C#CCCCOC(=O)[C@H](CC(N)=O)NC(=O)OC(C)(C)C)c1-c1ccc(Cl)cc1` (stereo partly drawn) [Compound 272], the EC50 (MDCK) is less than 0.1 µM. Consider `Cn1c(/C=C2\SC(=S)N(C3CC4CCC3C4)C2=O)cc(C#CCCCOC(=O)[C@@H]2CC(=O)N(C(C)(C)C)C(=O)N2)c1-c1ccc(Cl)cc1` (stereo partly drawn) [Compound 273], for which the 50% effective concentration (EC50) (MDCK) lay in the range of 0.1 to 0.25 µM. Take `O=C1/C(=C/c2sc(-c3ccc(Cl)cc3)cc2-c2ccc(Cl)cc2)SC(=S)N1C1CC2CCC1C2` (stereo not drawn) [Compound 274]: the concentration giving a half-maximal response (EC50) (MDCK) was less than 0.1 µM. As to `O=C1/C(=C/c2sc(-c3ccc(Cl)cc3)cc2-c2ccc(Cl)cc2)SC(=S)N1C1C2CC3CC(C2)CC1C3` (stereo not drawn) [Compound 275], under “MDCK”, the EC50 is less than 0.1 µM. In turn, `O=C1/C(=C/c2sc(-c3ccc(Cl)cc3)cc2CCCO)SC(=S)N1C1CC2CCC1C2` (stereo not drawn) [Compound 276] yielded an EC50 (MDCK) of less than 0.1 µM.

`O=C1/C(=C/c2sc(-c3cccc(Cl)c3)cc2CCCCCO)SC(=S)N1C1CC2CCC1C2` (stereo not drawn) [Compound 277]: where the note is “MDCK”, the EC50 is less than 0.1 µM.
